Assay results: patent publication US20220380801A1, “TRIPARTITE SYSTEMS FOR PROTEIN DIMERIZATION AND METHODS OF USE” (priority 2019, published 2022)

Tests used:
[1] = biological target: HCV NS3/4A PR (S139A) (Hepatitis C virus subtype 1a, UniProt A8DG50, A1066T/I1043Q/I1044E/L1039E/L1040E/L1047Q/S1165A, form not given); assay: Octet RED384 simeprevir affinity; format: binding; conditions: WT (S139A)
Procedure: The biotinylated HCV NS3/4A PR (S139A), HCV NS3/4A K136D PR, HCV NS3/4A K136N PR and HCV NS3/4A D168E PR were loaded on High Precision Streptavidin (SAX) biosensors at a concentration of 2 μg/ml in 10 mM Hepes pH 7.4, 150 mM NaCl, 0.05% Surfactant P20, 0.3% DMSO. The simeprevir was diluted […] (46.88-3,000 nM) in the same buffer and the loaded biosensors were dipped into the simeprevir samples for 180 sec to measure the association. For the dissociation the biosensors were dipped into the buffer for 600 sec. The traces were analysed using ForteBio Data Analysis software and fit globally using a 1:1 binding model.

[2] = test system: endogenous IL-2 gene in HEK293 cells; assay: Endogenous gene regulation assay (CRISPRa); format: cell-based, human; conditions: 300 nM simeprevir, split dCas9/AD cassette and IL-2 targeted gRNA
Text: CRISPRa relies on the use of a dead Cas9 enzyme (dCas9) with no endonuclease activity to bind to a target site within the promoter region of an endogenous gene via a single guide RNA. Upon recruitment of a transcriptional activator, transcription of the endogenous gene is initiated.
The dCas9 and AD are separately fused to the two protein components of the CID such that, only in the presence of the small molecule inducer, the AD is brought into close proximity to dCas9, allowing recruitment of the transcription machinery to the promoter region of an endogenous gene via a single guide RNA (sgRNA). In this example, an activation plasmid was generated consisting of two functional units; an AD fused to the HCV NS3/4A PR (S139A) (SEQ ID 226) and a dCas9 fused to three tandem copies of PRSIM-23 (SEQ ID 228). The sequences are preceded by a CMV promoter and separated by an internal ribosome entry site (IRES). A gRNA plasmid was generated by golden gate assembly, utilising BsaI. […]
Transcriptional regulation assays were performed in adherent HEK293 cells cultured in 96-well plates. Cells enzymatically dissociated from a tissue culture flask were counted and plated at 2.5×10^4 cells/well. […] 72 hours post-treatment (day 6), the cell supernatant was harvested and IL-2 quantified using a V-PLEX Human IL-2 Kit (Meso Scale Discovery), as per the manufacturer's protocol.

[3] = test system: iPSC single-cell clones with B2M-targeted kill switch; assay: Real-time cell analysis (RTCA) of kill switch activity in iPS cells; format: cell-based, human; conditions: 1 nM simeprevir
Text: A stable induced pluripotency stem cell (iPSC) line (a single clone (B-3/1F1) derived from the fibroblast cells of a healthy human donor from Research Specimen Collection Program of Astrazeneca) stably expressing the simeprevir-inducible kill switch was generated using CRISPR/Cas9 technology, using AAV-encoded DNA as template for targeted integration into the β2 microglobulin (B2M) locus.
The donor construct (FIG. 33A) encoding the PRSIM-based kill switch (SEQ ID 223) was synthesized and purchased from GenScript, Inc. and was subcloned into an AAV shuttle plasmid backbone. The donor construct was packaged into adeno-associated viral (AAV) particles; briefly, the donor plasmid was co-transfected with two helper plasmids, pAd5Helper and pR2C6, encoding adenoviral components essential for AAV replication and AAV2 replication (rep)/AAV6 capsid (cap) proteins respectively. After 72 hours, the cells were collected and were disrupted by freeze-thawing. The cell lysate was digested with Benzonase (100 U/ml) for 1 hour at 37° C. and were centrifugated. The vector-containing supernatant was collected and applied to Iodixanol gradient followed by ultracentrifugation. After ultracentrifugation, the vector containing solution was collected and washed with 20 mL PBS in a centrifugal concentrator tube for 3 times. Finally, the solution was concentrated to 1 mL. […]

COc1ccc2c(O[C@@H]3C[C@H]4C(=O)N[C@]5(C(=O)NS(=O)(=O)C6CC6)C[C@H]5/C=C\CCCCN(C)C(=O)[C@@H]4C3)cc(-c3nc(C(C)C)cs3)nc2c1C [simeprevir]
Kd [1]: 0.0178 µM | koff [1]: 0.000495 s⁻¹ | kon [1]: 27800 M⁻¹ s⁻¹ | IL-2 secretion [2]: resulted in secretion of IL-2 | cell proliferation index ([3]; clones encoding the kill switch): dramatic reduction in cell proliferation index after 5 hours | cell proliferation index ([3]; parental iPSC cells): continued to proliferate
